Data reported in patent US12492170B2, “Tetrahydro-1H-benzazepine compound as potassium channel modulator, preparation method and use thereof” (Shanghai Zhimeng Biopharma Inc., priority 2019, dated 2025).
Where two headings read alike, the source gives them in different places.

Tests used:
[1] = test system: SD rats; experiment: Safety research: single tail vein injection toxicity, maximum tolerated dose; format: in vivo; conditions: male SD rats; for Maximum tolerated dose: observed 48 hours
Procedure: (§1) Male Sprague-Dawley (SD) rats (SPF grade) were selected, divided into groups (3 rats per group), and administered via tail vein injection. Single administration, observed for 48 hours after administration. During the experiment, two cage-side observations and two detailed clinical observations were performed every day (observation was carried out before and 2 hours after the administration on the day of administration). Toxicity study animals were weighed and recorded every day, and food consumption of each animal for 24±1 hours was measured and recorded every day. At the end of the experiment (D3), euthanasia was performed by carbon dioxide inhalation anesthesia and the death of the animal was ensured by abdominal aorta/venous bleeding, and gross anatomy was performed and recorded.

[2] = Pharmacokinetics and cerebral blood ratio after single administration in male ICR mice; format: in vivo; conditions: for AUC(0-inf) / AUC(0-t) / Cmax / half-life / Tmax: plasma
Procedure: Take a healthy male ICR mouse (weight range: 18-22 grams in), grouping, 24 mice/group, and 3 mice/time point, fasting for more than 12 hours (only oral administration group), administration, blood was collected by cardiac puncture at time points 0.083 (only iv), 0.25, 0.5, 1, 2, 4, 6 (only po), 8 and 24 hours, at least 0.3 mL of whole blood was collected to EDTA-K2 anti-coagulation tube, within half an hour, plasma was taken by centrifuge (6000 revolutions, 8 minutes, 4° C.), frozen at −20° C. for later use. At the same time, brain tissue was collected in the oral group. After being rinsed with the physiological saline, the water absorbing paper was used to dry, weighed, and frozen at −20° C. for later use.

[3] = target: T1, KCNQ2 potassium channel (Homo sapiens, UniProt O43526); experiment: Potassium ion channel opener activity test (FDSS/μCELL detection, FluxOR); format: cell-based
T1 construct: expressed in transfected cells; host or cells: CHO (CHO-KCNQ2, kept under G418 selection)
Procedure: After the digestion was completed, 7 mL culture medium (90% DMEM/F12+10% FBS+500 μg/mL G418) was added to neutralize, centrifugated for 3 minutes at 800 rpm, the supernatant was aspirated, then 5 mL culture medium was added to resuspend, and then the cells were counted.
Cell plating: the density to 3×10^4/well was adjusted according to the results of cell counting. After standing at room temperature for 30 minutes, placed in a 37° C. CO2 incubator and incubated overnight for 16-18 hours. The cell density reached about 80%.
Fluorescent dye incubation: discarded the cell culture medium, 80 μL/well loading buffer was added, and incubated in the dark at room temperature for 60 minutes.
Compound incubation: discarded the loading buffer, 80 μL/well prepared compound solution was added, incubated in the dark at room temperature for 20 minutes.
Fluorescence data collection: FDSS/μCELL instrument was used for real-time fluorescence signal recording, excitation wavelength was 480 nm, emission wavelength was 540 nm, recorded 1 times per second, recorded for 10 seconds after baseline and started to add 20 μL/well stimulation buffer, and then continued to record until the end of 180 seconds.
20 mM compound stock solution in DMSO was prepared, 10 μL of 20 mM compound stock solution was took into 20 μL DMSO solution, serially diluted 3 times to 8 intermediate concentrations; then the intermediate concentrations of the compound were took to the test buffer, diluted 200 times to get the final concentration to be tested, 80 μL was took and added to the test plate.
Each concentration set 3 duplicates.
The excitement effect of the compound was calculated by the following formula: […]

[4] = Safety research: single tail vein injection toxicity, maximum tolerated dose; format: in vivo; conditions: rat, in vivo, male SD rats, observed 48 hours
Procedure: as §1

[5] = CHO-KCNQ2 cells, fluorescence, FDSS/μCELL, read-out: EC50

With Cc1cc2c(c(C)c1NC(=O)CC(C)(C)C)CCCCN2Cc1ccc(F)cc1 [Compound A1, N-(1-(4-fluorobenzyl)-6,8-dimethyl-2,3,4,5-tetrahydro-1H-benzazepine-7-yl)-3,3-dimethylbutanamide] the Maximum tolerated dose [1] was “MTD > 1 mg/kg”, the F ([2]; gavage 1 mg/kg vs intravenous 0.3 mg/kg) was 56.9% and the AUC(0-inf) ([2]; mouse, intravenous 0.3 mg/kg) was 74 ng·h/mL. It also gave an AUC(0-t) ([2]; mouse, intravenous 0.3 mg/kg) of 73 ng·h/mL, a Cmax ([2]; mouse, intravenous 0.3 mg/kg) of 110 ng/mL and a half-life ([2]; mouse, intravenous 0.3 mg/kg) of 5.32 h. The AUC(0-inf) ([2]; mouse, po, gavage 1 mg/kg) was 139 ng·h/mL, the AUC(0-t) ([2]; mouse, po, gavage 1 mg/kg) was 138 ng·h/mL and the Cmax ([2]; mouse, po, gavage 1 mg/kg) was 94.4 ng/mL. For the same compound, the Tmax ([2]; mouse, po, gavage 1 mg/kg) was 0.5 h, the half-life ([2]; mouse, po, gavage 1 mg/kg) was 5.42 h and the EC50 [3] was 0.083 µM.

In the case of Cc1cc2c(c(C)c1NC(=O)CCC1CCCC1)CCCCN2Cc1ccc(F)cc1 [Compound A2, 3-cyclopentyl-N-(1-(4-fluorobenzyl)-6,8-dimethyl-2,3,4,5-tetrahydro-1H-benzazepine-7-yl)propionamide], the Maximum tolerated dose [1] is reported as “MTD > 1 mg/kg” and the EC50 [3] is reported as 0.037 µM.

In the case of CCCC(=O)Nc1c(C)cc2c(c1C)CCCCN2Cc1ccc(F)cc1 [Compound A3, N-(1-(4-fluorobenzyl)-6,8-dimethyl-2,3,4,5-tetrahydro-1H-benzazepine-7-yl)butanamide], the EC50 [3, 5] is reported as 0.271 µM.

For C#CC(C)(C)CC(=O)Nc1c(C)cc2c(c1C)CCCCN2Cc1ccc(F)cc1 [Compound A4, N-(1-(4-fluorobenzyl)-6,8-dimethyl-2,3,4,5-tetrahydro-1H-benzazepine-7-yl)-3,3-dimethylpent-4-ynamide], the F ([2]; gavage 2.5 mg/kg vs intravenous 0.5 mg/kg) was 43.39%, the Kp at 1 h ([2]; mouse, brain, single oral 2.5 mg/kg, 1 h) was 1.1 and the Kp at 2 h ([2]; mouse, brain, single oral 2.5 mg/kg, 2 h) was 1.1. It also gave a Kp at 4 h ([2]; mouse, brain, single oral 2.5 mg/kg, 4 h) of 1.3, a Kp at 8 h ([2]; mouse, brain, single oral 2.5 mg/kg, 8 h) of 1.1 and an AUC(0-inf) ([2]; mouse, intravenous 0.5 mg/kg) of 255 ng·h/mL. It also gave an AUC(0-t) ([2]; mouse, intravenous 0.5 mg/kg) of 235 ng·h/mL, a Cmax ([2]; mouse, intravenous 0.5 mg/kg) of 294 ng/mL and a half-life ([2]; mouse, intravenous 0.5 mg/kg) of 1.9 h. It also gave an AUC(0-inf) ([2]; mouse, po, gavage 2.5 mg/kg) of 541 ng·h/mL, an AUC(0-t) ([2]; mouse, po, gavage 2.5 mg/kg) of 510 ng·h/mL and a Cmax ([2]; mouse, po, gavage 2.5 mg/kg) of 257 ng/mL. It also gave a Tmax ([2]; mouse, po, gavage 2.5 mg/kg) of 0.5 h, a half-life ([2]; mouse, po, gavage 2.5 mg/kg) of 1.95 h and an EC50 [3, 5] of 0.165 µM.

In the case of Cc1cc2c(c(C)c1NC(=O)CC1(C)CC1)CCCCN2Cc1ccc(F)cc1 [Compound A5, N-(1-(4-fluorobenzyl)-6,8-dimethyl-2,3,4,5-tetrahydro-1H-benzazepine-7-yl)-2-(1-methylcyclopropyl)acetamide], the EC50 [3, 5] is reported as 0.133 µM.

For Cc1cc2c(c(C)c1NC(=O)CC(C)(C)C)CCCCN2Cc1ccc(Cl)s1 [Compound A6, N-(1-((5-chlorothiophene-2-yl)methyl)-6,8-dimethyl-2,3,4,5-tetrahydro-1H-benzazepine-7-yl)-3,3-dimethylbutamide], the Maximum tolerated dose [1] was “MTD > 1 mg/kg” and the EC50 [3] was 0.021 µM.

With Cc1cc2c(c(C)c1NC(=O)CC(C)(C)C)CCCCN2Cc1ccc(F)s1 [Compound A7, N-(1-((5-fluorothiophene-2-yl)methyl)-6,8-dimethyl-2,3,4,5-tetrahydro-1H-benzazepine-7-yl)-3,3-dimethylbutamide] the Maximum tolerated dose [1] was “MTD > 1 mg/kg” and the EC50 [3] was 0.016 µM.

With Cc1cc2c(c(C)c1NC(=O)CCC1CCCC1)CCCCN2Cc1ccc(F)s1 [Compound A8, 3-cyclopentyl-N-(1-((5-fluorothiophene-2-yl)methyl)-6,8-dimethyl-2,3,4,5-tetrahydro-1H-benzazepine-7-yl)propionamide] the Maximum tolerated dose [1] was “MTD > 1 mg/kg” and the EC50 [3] was 0.048 µM.

For Cc1cc2c(c(C)c1NC(=O)CC(C)(C)C)CCCN2Cc1ccc(F)cc1 [Compound B1, reference compound], the “toxicity” value ([1]; dose of 0.3 mg/kg) was “unacceptable toxicity” and the MTD at 48 h [4] was 0.06 to 0.3 mg/kg.

For Cc1cc2c(c(C)c1NC(=O)CC(C)(C)C)CCN2Cc1ccc(F)cc1 [Compound B2, reference compound], the “toxicity” value ([1]; dose of 1 mg/kg) was “unacceptable toxicity” and the MTD at 48 h [4] was 0.3 to 1 mg/kg.
